Measured values reported in PubChem BioAssay AID1918998 (Molecular Pharmacology Branch, DTP, NCI, 2023).

Test system: 521955-158-R2-J5-PDC complex spheroid growth
Test: Anticancer human tumor 521955-158-R2-J5-PDC patient-derived pancreatic carcinoma cell line growth inhibition [AhR]
Settings: for IC50: curve of first compound; for viability, T/C: stronger effect = lower value
Summary of the method: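 Complex tumor spheroids co-cultured with HUVEC and human MSC stroma; AhR antagonists tested in combination with standard-of-care and investigational agents. Top concentration at or near clinical Cmax (else 10 microM), half-log dilutions; growth expressed as percent test/control.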

[1] = second compound 0.1 µM, first compound 0.0316 µM
[2] = second compound 0.1 µM, first compound 0.1 µM
[3] = second compound 0.1 µM, first compound 0.316 µM
[4] = second compound 0.1 µM, first compound 1 µM
[5] = second compound 0.1 µM, first compound 3.16 µM
[6] = second compound 0.1 µM, first compound 10 µM
[7] = second compound 0.316 µM, first compound 0.0316 µM
[8] = second compound 0.316 µM, first compound 0.1 µM
[9] = second compound 0.316 µM, first compound 0.316 µM
[10] = second compound 0.316 µM, first compound 1 µM
[11] = second compound 0.316 µM, first compound 3.16 µM
[12] = second compound 0.316 µM, first compound 10 µM
[13] = second compound 1 µM, first compound 0.0316 µM
[14] = second compound 1 µM, first compound 0.1 µM
[15] = second compound 1 µM, first compound 0.316 µM
[16] = second compound 1 µM, first compound 1 µM
[17] = second compound 1 µM, first compound 3.16 µM
[18] = second compound 1 µM, first compound 10 µM
[19] = second compound 3.16 µM, first compound 0.0316 µM
[20] = second compound 3.16 µM, first compound 0.1 µM
[21] = second compound 3.16 µM, first compound 0.316 µM
[22] = second compound 3.16 µM, first compound 1 µM
[23] = second compound 3.16 µM, first compound 3.16 µM
[24] = second compound 3.16 µM, first compound 10 µM
[25] = second compound 10 µM, first compound 0.0316 µM
[26] = second compound 10 µM, first compound 0.1 µM
[27] = second compound 10 µM, first compound 0.316 µM
[28] = second compound 10 µM, first compound 1 µM
[29] = second compound 10 µM, first compound 3.16 µM
[30] = second compound 10 µM, first compound 10 µM
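Throughout, for viability, T/C: spheroids mix tumor cells with HUVEC endothelium and human MSC stroma; luminescence taken as viability surrogate after a week of drug exposure.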

Structure (SMILES) | IC50 (second compound 0.1 µM) | IC50 (second compound 0.316 µM) | IC50 (second compound 1 µM) | IC50 (second compound 3.16 µM) | IC50 (second compound 10 µM) | viability, T/C [1] | viability, T/C [2] | viability, T/C [3] | viability, T/C [4] | viability, T/C [5] | viability, T/C [6] | viability, T/C [7] | viability, T/C [8] | viability, T/C [9] | viability, T/C [13] | viability, T/C [14] | viability, T/C [19] | viability, T/C [20] | viability, T/C [25] | viability, T/C [26] | further results
COc1cc(Nc2ncc3c(n2)-c2ccc(Cl)cc2C(c2c(F)cccc2OC)=NC3)ccc1C(=O)O + Cc1ccccc1N=Nc1ccc(NC(=O)c2ccnn2C)c(C)c1 | > 10000 nM | > 10000 nM | > 10000 nM | > 10000 nM | > 10000 nM | 81.3% | 76% | 69.8% | 68.1% | 63.8% | 48.5% | 89.5% | 79.9% | 72.4% | 109% | 69.8% | 98.6% | 77% | 122% | 96.1% | viability, T/C [10]: 60.2%; viability, T/C [11]: 71.4%; viability, T/C [12]: 55.4%; viability, T/C [15]: 74.3%; viability, T/C [16]: 58.9%; viability, T/C [17]: 62.1%; viability, T/C [18]: 53.9%; viability, T/C [21]: 68.3%; viability, T/C [22]: 74.2%; viability, T/C [23]: 74.7%; viability, T/C [24]: 71.4%; viability, T/C [27]: 94.6%; viability, T/C [28]: 88.5%; viability, T/C [29]: 83.4%; viability, T/C [30]: 90.7%
Cn1ncnc1C1c2n[nH]c(=O)c3cc(F)cc(c23)NC1c1ccc(F)cc1 (stereo not given) + Cc1ccccc1N=Nc1ccc(NC(=O)c2ccnn2C)c(C)c1 | > 100 nM | > 100 nM | > 100 nM | > 100 nM | > 100 nM | 105% | 75.4% |  |  |  |  | 97.8% | 89.1% |  | 118% | 115% | 128% | 128% | 143% | 141% | viability, T/C (second compound 0.1 µM, first compound 0.000316 µM): 110%; viability, T/C (second compound 0.1 µM, first compound 0.001 µM): 115%; viability, T/C (second compound 0.1 µM, first compound 0.00316 µM): 108%; viability, T/C (second compound 0.1 µM, first compound 0.01 µM): 103%; viability, T/C (second compound 0.316 µM, first compound 0.000316 µM): 111%; viability, T/C (second compound 0.316 µM, first compound 0.001 µM): 119%; viability, T/C (second compound 0.316 µM, first compound 0.00316 µM): 108%; viability, T/C (second compound 0.316 µM, first compound 0.01 µM): 98.5%; viability, T/C (second compound 1 µM, first compound 0.000316 µM): 111%; viability, T/C (second compound 1 µM, first compound 0.001 µM): 107%; viability, T/C (second compound 1 µM, first compound 0.00316 µM): 138%; viability, T/C (second compound 1 µM, first compound 0.01 µM): 118%; viability, T/C (second compound 3.16 µM, first compound 0.000316 µM): 140%; viability, T/C (second compound 3.16 µM, first compound 0.001 µM): 150%; viability, T/C (second compound 3.16 µM, first compound 0.00316 µM): 142%; viability, T/C (second compound 3.16 µM, first compound 0.01 µM): 154%; viability, T/C (second compound 10 µM, first compound 0.000316 µM): 158%; viability, T/C (second compound 10 µM, first compound 0.001 µM): 148%; viability, T/C (second compound 10 µM, first compound 0.00316 µM): 158%; viability, T/C (second compound 10 µM, first compound 0.01 µM): 146%
NS(=O)(=O)OCC1CC(n2ccc3c(NC4CCc5ccccc54)ncnc32)CC1O (stereo not given) + Cc1ccccc1N=Nc1ccc(NC(=O)c2ccnn2C)c(C)c1 | 1360 nM | 1220 nM | 941 nM | 821 nM | 343 nM | 118% | 115% | 102% | 56.7% | 30.4% | 20.8% | 111% | 105% | 87.5% | 114% | 111% | 137% | 110% | 108% | 91.2% | viability, T/C [10]: 53.5%; viability, T/C [11]: 30.9%; viability, T/C [12]: 21.9%; viability, T/C [15]: 88.3%; viability, T/C [16]: 47.6%; viability, T/C [17]: 29.6%; viability, T/C [18]: 23.7%; viability, T/C [21]: 77.6%; viability, T/C [22]: 45.2%; viability, T/C [23]: 23.7%; viability, T/C [24]: 21.8%; viability, T/C [27]: 50.8%; viability, T/C [28]: 32.1%; viability, T/C [29]: 25.2%; viability, T/C [30]: 25.6%
